Source: ChEMBL document CHEMBL5649169 (ChemMedChem, 2018)

Assays:
[1] = target: Protein YIPF5 (Homo sapiens) (UniProt Q969M3); note: assay method not described here
[2] = target: Proto-oncogene tyrosine-protein kinase receptor Ret (Homo sapiens) (UniProt P07949); note: assay method not described here
[3] = target: Non-POU domain-containing octamer-binding protein (Homo sapiens) (UniProt Q15233); note: assay method not described here
[4] = target: Ephrin type-B receptor 3 (Homo sapiens, UniProt P54753); assay: Inhibition of Nano Luc-fused full length C-terminal EPHB3 (unknown origin) expressed in HEK293T cells using NanoGlo as substrate incubated for 2 hrs in presence of tracer by NanoBRET assay; assay type: cell-based
[5] = target: Ras-related protein Rab-5C (Homo sapiens) (UniProt P51148); note: assay method not described here
[6] = target: Ataxin-2-like protein (Homo sapiens) (UniProt Q8WWM7); note: assay method not described here
[7] = target: Conserved oligomeric Golgi complex subunit 7 (Homo sapiens) (UniProt P83436); note: assay method not described here
Conserved oligomeric Golgi complex subunit 7 (Homo sapiens), sequence (P83436 whole entry, one chain of several): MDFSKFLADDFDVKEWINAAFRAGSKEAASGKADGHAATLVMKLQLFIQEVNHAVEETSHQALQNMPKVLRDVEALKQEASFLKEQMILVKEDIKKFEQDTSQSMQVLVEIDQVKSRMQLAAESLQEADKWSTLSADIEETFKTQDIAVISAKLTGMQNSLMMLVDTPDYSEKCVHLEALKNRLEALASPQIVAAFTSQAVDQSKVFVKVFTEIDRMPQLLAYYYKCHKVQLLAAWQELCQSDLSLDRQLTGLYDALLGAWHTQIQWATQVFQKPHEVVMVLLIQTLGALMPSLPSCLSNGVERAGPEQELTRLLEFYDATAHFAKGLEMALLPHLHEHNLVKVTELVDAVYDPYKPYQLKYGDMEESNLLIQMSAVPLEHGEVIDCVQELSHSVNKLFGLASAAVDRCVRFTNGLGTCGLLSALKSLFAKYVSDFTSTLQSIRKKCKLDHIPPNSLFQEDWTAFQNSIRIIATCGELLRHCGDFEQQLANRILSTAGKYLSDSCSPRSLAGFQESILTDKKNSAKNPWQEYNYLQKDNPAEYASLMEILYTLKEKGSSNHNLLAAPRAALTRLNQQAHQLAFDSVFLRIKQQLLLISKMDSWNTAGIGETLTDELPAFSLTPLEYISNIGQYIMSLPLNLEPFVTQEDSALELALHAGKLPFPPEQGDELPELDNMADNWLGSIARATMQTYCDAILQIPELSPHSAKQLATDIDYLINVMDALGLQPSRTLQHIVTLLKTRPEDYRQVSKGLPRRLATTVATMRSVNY

[8] = target: Glia maturation factor gamma (Homo sapiens) (UniProt O60234); note: assay method not described here
[9] = target: Glycogen phosphorylase, brain form (Homo sapiens) (UniProt P11216); note: assay method not described here
[10] = target: Dolichyl-diphosphooligosaccharide--protein glycosyltransferase subunit DAD1 (Homo sapiens) (UniProt P61803); note: assay method not described here
[11] = target: Mitogen-activated protein kinase 1 (Homo sapiens) (UniProt P28482); note: assay method not described here
[12] = target: Alpha-internexin (Homo sapiens) (UniProt Q16352); note: assay method not described here
[13] = target: Histone deacetylase 1 (Homo sapiens) (UniProt Q13547); note: assay method not described here
[14] = target: ATP synthase F(1) complex subunit delta, mitochondrial (Homo sapiens) (UniProt P30049); note: assay method not described here
[15] = target: Phosphatidylinositol 5-phosphate 4-kinase type-2 gamma (Homo sapiens) (UniProt Q8TBX8); note: assay method not described here
Phosphatidylinositol 5-phosphate 4-kinase type-2 gamma (Homo sapiens), sequence (Q8TBX8 whole entry): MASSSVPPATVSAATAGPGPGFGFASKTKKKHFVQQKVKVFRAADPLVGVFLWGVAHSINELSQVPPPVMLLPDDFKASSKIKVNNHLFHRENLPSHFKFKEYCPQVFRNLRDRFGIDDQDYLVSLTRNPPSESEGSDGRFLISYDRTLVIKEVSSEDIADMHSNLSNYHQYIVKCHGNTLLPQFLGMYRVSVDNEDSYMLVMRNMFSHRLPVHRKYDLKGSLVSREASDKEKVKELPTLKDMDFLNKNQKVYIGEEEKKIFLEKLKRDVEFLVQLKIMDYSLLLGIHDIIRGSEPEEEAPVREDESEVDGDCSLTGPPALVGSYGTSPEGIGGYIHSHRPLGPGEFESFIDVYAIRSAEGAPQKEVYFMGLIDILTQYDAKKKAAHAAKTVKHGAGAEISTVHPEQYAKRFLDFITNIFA

[16] = target: DNA topoisomerase 2-alpha (Homo sapiens) (UniProt P11388); note: assay method not described here
DNA topoisomerase 2-alpha (Homo sapiens), sequence (P11388 whole entry): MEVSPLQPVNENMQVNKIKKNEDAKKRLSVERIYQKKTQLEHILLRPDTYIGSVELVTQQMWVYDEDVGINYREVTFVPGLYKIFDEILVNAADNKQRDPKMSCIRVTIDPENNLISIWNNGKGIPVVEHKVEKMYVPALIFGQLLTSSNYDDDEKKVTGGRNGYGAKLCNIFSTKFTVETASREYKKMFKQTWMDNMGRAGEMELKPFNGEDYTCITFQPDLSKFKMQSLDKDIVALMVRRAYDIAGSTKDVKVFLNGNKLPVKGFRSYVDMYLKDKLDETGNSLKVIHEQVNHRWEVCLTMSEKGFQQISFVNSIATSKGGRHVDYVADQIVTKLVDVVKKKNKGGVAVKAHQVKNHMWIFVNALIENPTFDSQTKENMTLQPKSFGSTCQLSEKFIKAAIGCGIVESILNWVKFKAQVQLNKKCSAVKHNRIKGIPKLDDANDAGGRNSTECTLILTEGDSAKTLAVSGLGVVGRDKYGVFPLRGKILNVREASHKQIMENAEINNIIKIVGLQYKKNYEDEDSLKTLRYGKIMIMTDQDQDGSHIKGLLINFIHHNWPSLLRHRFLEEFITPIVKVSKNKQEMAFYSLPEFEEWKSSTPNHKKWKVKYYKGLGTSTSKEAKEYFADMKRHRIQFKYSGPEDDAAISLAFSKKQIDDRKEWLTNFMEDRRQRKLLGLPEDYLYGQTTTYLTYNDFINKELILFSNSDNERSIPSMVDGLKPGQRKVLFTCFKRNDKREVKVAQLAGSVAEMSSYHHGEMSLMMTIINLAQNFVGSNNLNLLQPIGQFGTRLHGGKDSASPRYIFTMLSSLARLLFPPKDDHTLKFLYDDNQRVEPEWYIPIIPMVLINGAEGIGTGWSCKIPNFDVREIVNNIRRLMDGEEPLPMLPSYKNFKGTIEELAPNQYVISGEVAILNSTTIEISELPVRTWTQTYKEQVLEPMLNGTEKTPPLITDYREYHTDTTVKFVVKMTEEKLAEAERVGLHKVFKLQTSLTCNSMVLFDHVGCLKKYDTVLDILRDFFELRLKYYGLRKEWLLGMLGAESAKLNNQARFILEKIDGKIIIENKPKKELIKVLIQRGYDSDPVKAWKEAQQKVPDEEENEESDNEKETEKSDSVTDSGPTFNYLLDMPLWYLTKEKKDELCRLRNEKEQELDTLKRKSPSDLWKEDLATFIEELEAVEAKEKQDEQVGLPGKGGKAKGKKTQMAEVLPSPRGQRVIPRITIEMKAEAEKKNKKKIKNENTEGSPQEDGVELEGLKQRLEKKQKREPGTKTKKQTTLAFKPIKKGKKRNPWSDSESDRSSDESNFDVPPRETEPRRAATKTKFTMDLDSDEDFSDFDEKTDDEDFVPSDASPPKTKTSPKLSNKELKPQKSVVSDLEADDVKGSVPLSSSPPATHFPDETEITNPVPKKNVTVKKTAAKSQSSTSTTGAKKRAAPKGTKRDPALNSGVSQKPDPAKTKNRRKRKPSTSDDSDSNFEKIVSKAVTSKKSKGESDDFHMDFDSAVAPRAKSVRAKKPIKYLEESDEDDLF

[17] = target: Oxysterol-binding protein-related protein 8 (Homo sapiens) (UniProt Q9BZF1); note: assay method not described here
Oxysterol-binding protein-related protein 8 (Homo sapiens), sequence (Q9BZF1 whole entry): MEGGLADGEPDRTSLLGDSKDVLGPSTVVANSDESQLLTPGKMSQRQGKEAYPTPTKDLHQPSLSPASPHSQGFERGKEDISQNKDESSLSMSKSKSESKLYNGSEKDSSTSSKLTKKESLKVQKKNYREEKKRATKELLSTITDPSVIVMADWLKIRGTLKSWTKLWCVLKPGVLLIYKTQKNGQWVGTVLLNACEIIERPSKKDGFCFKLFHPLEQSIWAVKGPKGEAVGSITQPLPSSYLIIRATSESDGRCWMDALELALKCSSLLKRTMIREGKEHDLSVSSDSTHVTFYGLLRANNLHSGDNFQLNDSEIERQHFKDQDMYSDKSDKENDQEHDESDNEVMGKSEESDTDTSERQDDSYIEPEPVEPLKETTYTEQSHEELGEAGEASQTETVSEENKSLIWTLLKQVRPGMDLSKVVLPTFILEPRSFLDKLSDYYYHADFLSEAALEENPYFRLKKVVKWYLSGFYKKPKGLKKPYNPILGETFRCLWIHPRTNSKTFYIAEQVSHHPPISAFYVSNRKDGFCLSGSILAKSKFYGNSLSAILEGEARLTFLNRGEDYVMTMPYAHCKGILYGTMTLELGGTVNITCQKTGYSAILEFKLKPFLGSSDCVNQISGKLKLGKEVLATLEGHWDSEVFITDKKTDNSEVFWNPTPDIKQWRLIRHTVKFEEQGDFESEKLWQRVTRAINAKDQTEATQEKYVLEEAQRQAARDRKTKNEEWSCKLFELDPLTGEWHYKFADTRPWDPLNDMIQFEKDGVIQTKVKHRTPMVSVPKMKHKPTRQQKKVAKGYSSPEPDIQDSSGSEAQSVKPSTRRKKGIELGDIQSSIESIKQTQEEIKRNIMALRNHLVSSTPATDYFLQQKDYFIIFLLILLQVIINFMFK

[18] = target: Nucleolin (Homo sapiens) (UniProt P19338); note: assay method not described here
Nucleolin (Homo sapiens), sequence (P19338 whole entry): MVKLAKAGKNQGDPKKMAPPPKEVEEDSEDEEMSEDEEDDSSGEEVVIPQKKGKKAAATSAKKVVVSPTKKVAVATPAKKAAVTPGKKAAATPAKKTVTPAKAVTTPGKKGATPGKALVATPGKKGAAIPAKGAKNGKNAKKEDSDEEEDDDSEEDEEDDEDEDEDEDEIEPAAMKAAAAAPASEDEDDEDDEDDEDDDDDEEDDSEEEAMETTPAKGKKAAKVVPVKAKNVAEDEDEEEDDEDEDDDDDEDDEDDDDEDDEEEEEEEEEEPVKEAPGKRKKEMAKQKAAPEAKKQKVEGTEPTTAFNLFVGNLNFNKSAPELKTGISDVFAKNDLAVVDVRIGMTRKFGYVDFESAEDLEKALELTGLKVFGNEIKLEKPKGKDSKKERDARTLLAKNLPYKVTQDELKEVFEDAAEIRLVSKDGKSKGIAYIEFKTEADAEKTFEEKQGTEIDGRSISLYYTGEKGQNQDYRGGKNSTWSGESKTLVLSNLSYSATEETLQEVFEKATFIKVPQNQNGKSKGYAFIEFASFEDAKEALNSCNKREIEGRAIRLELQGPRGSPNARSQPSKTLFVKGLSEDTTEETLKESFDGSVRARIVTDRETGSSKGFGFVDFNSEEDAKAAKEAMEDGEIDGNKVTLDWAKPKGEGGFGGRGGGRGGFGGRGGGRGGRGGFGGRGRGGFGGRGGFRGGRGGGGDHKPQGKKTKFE

[19] = target: Heterogeneous nuclear ribonucleoprotein H3 (Homo sapiens) (UniProt P31942); note: assay method not described here
[20] = target: Protein FAM136A (Homo sapiens) (UniProt Q96C01); note: assay method not described here
[21] = target: Ubiquitin-associated protein 2-like (Homo sapiens) (UniProt Q14157); note: assay method not described here
[22] = target: SUMO-conjugating enzyme UBC9 (Homo sapiens) (UniProt P63279); note: assay method not described here
[23] = target: Protein-tyrosine kinase 6 (Homo sapiens) (UniProt Q13882); note: assay method not described here
[24] = target: Stathmin (Homo sapiens) (UniProt P16949); note: assay method not described here
[25] = target: Calcium/calmodulin-dependent protein kinase kinase 2 (Homo sapiens) (UniProt Q96RR4); note: assay method not described here
[26] = target: Ephrin type-A receptor 4 (Homo sapiens, UniProt P54764); note: assay method not described here
[27] = target: ORM1-like protein 3 (Homo sapiens) (UniProt Q8N138); note: assay method not described here
[28] = target: Small ribosomal subunit protein uS4 (Homo sapiens) (UniProt P46781); note: assay method not described here
[29] = target: TRAF family member-associated NF-kappa-B activator (Homo sapiens) (UniProt Q92844); note: assay method not described here
[30] = target: D-3-phosphoglycerate dehydrogenase (Homo sapiens) (UniProt O43175); note: assay method not described here
[31] = target: Tyrosine-protein kinase Tec (Homo sapiens) (UniProt P42680); note: assay method not described here
[32] = target: Proliferation marker protein Ki-67 (Homo sapiens) (UniProt P46013); note: assay method not described here
[33] = target: Crk-like protein (Homo sapiens) (UniProt P46109); note: assay method not described here
[34] = target: Dual specificity tyrosine-phosphorylation-regulated kinase 1A (Homo sapiens) (UniProt Q13627); note: assay method not described here
[35] = target: ATP synthase F(0) complex subunit k, mitochondrial (Homo sapiens) (UniProt Q96IX5); note: assay method not described here
[36] = target: Transmembrane protein 43 (Homo sapiens) (UniProt Q9BTV4); note: assay method not described here
[37] = target: 5'-AMP-activated protein kinase subunit gamma-1 (Homo sapiens) (UniProt P54619); note: assay method not described here
[38] = target: Cancer-related nucleoside-triphosphatase (Homo sapiens) (UniProt Q9BSD7); note: assay method not described here
[39] = target: Cytochrome c oxidase subunit 5B, mitochondrial (Homo sapiens) (UniProt P10606); note: assay method not described here
Cytochrome c oxidase subunit 5B, mitochondrial (Homo sapiens), sequence (P10606 whole entry): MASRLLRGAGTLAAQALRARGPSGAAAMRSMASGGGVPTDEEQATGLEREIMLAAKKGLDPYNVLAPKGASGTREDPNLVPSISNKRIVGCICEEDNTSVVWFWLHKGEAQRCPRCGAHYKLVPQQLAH

[40] = target: Calreticulin (Homo sapiens) (UniProt P27797); note: assay method not described here
Calreticulin (Homo sapiens), sequence (P27797 whole entry, the tested form may be a part): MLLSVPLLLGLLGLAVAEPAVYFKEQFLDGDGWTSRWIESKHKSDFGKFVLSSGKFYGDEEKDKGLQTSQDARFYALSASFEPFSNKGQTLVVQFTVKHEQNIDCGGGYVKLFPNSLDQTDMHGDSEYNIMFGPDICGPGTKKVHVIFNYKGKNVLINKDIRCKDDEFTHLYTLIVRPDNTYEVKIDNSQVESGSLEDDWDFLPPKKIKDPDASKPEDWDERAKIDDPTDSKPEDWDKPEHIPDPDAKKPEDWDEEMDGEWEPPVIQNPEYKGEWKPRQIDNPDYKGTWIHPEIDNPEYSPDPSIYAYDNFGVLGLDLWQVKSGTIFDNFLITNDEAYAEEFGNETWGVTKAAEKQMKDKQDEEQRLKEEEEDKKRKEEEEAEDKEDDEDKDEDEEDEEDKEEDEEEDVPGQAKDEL

[41] = target: KH domain-containing, RNA-binding, signal transduction-associated protein 1 (Homo sapiens) (UniProt Q07666); note: assay method not described here
[42] = target: WASH complex subunit 5 (Homo sapiens) (UniProt Q12768); note: assay method not described here
[43] = target: Profilin-1 (Homo sapiens) (UniProt P07737); note: assay method not described here
Profilin-1 (Homo sapiens), sequence (P07737 whole entry): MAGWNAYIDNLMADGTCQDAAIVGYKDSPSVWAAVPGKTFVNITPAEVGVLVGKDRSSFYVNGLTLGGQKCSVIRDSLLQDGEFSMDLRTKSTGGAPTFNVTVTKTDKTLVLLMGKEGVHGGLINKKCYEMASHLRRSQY

[44] = target: Eukaryotic translation initiation factor 3 subunit J (Homo sapiens) (UniProt O75822); note: assay method not described here
[45] = target: Ephrin type-A receptor 2 (Homo sapiens, UniProt P29317); note: assay method not described here

## Cc1ccc(C(=O)Nc2cccc(C(F)(F)F)c2)cc1Nc1nc(-c2cccnc2)nc2c1cnn2C
[1]
  ED50: 1.94 µM
[2]
  ED50: 5.11 µM
[3]
  ED50: 3.17 µM
[4]
  IC50: 0.006 µM
[5]
  ED50: 19.2 µM
[6]
  ED50: 3.43 µM
[7]
  ED50: 0.018 µM
[8]
  ED50: 70.9 µM
[9]
  ED50: 0.0395 µM
[10]
  ED50: 14 µM
[11]
  ED50: 0.027 µM
[12]
  ED50: 0.306 µM
[13]
  ED50: 5.81 µM
[14]
  ED50: 146 µM
[15]
  ED50: 0.29 µM
[16]
  ED50: 0.0563 µM
[17]
  ED50: 0.128 µM
[18]
  ED50: 2.79 µM
[19]
  ED50: 0.00513 µM
[20]
  ED50: 0.043 µM
[21]
  ED50: 13.3 µM
[22]
  ED50: 47.7 µM
[23]
  ED50: 5.95 µM
[24]
  ED50: 12.4 µM
[25]
  ED50: 0.112 µM
[26]
  ED50: 1.13 µM
[27]
  ED50: 5.95 µM
[28]
  ED50: 10.7 µM
[29]
  ED50: 13.4 µM
[30]
  ED50: 0.00945 µM
[31]
  ED50: 0.0311 µM
[32]
  ED50: 4.64 µM
[33]
  ED50: 0.0843 µM
[34]
  ED50: 0.102 µM
[35]
  ED50: 128 µM
[36]
  ED50: 0.00615 µM
[37]
  ED50: 3.12 µM
[38]
  ED50: 844 µM
[39]
  ED50: 39.4 µM
[40]
  ED50: 24.3 µM
[41]
  ED50: 0.118 µM
[42]
  ED50: 0.000337 µM
[43]
  ED50: 3.95 µM
[44]
  ED50: 0.126 µM
[45]
  ED50: 0.58 µM

## Cc1ccc(C(=O)Nc2cccc(C(F)(F)F)c2)cc1Nc1nc(-c2cccnc2)nc2nn(C)cc12
[1]
  ED50: 0.0595 µM
[2]
  ED50: 0.0063 µM
[3]
  ED50: 0.0517 µM
[4]
  IC50: 0.191 µM
[5]
  ED50: 13.9 µM
[6]
  ED50: 10.3 µM
[7]
  ED50: 3.71 µM
[8]
  ED50: 0.00291 µM
[9]
  ED50: 7 µM
[10]
  ED50: 32.9 µM
[11]
  ED50: 0.0471 µM
[12]
  ED50: 1.7 µM
[13]
  ED50: 1.17 µM
[14]
  ED50: 97.9 µM
[15]
  ED50: 0.0058 µM
[16]
  ED50: 0.0585 µM
[17]
  ED50: 650 µM
[18]
  ED50: 30.3 µM
[19]
  ED50: 17.1 µM
[20]
  ED50: 4.63 µM
[21]
  ED50: 14.3 µM
[22]
  ED50: 0.291 µM
[23]
  ED50: 68.5 µM
[24]
  ED50: 8.26 µM
[25]
  ED50: 10.2 µM
[26]
  ED50: 5.1 µM
[27]
  ED50: 7.47 µM
[28]
  ED50: 0.000236 µM
[29]
  ED50: 0.0508 µM
[30]
  ED50: 15 µM
[31]
  ED50: 0.0289 µM
[32]
  ED50: 0.0399 µM
[33]
  ED50: 10.2 µM
[34]
  ED50: 12.5 µM
[35]
  ED50: 0.0812 µM
[36]
  ED50: 10.6 µM
[37]
  ED50: 0.0292 µM
[38]
  ED50: 0.0608 µM
[39]
  ED50: 15 µM
[40]
  ED50: 24.5 µM
[41]
  ED50: 9.62 µM
[42]
  ED50: 3.06 µM
[43]
  ED50: 3.98 µM
[44]
  ED50: 0.54 µM
[45]
  ED50: 6.17 µM
